The source made the active and inactive calls. The rule behind the calls is not given here.
What was measured:
[1] = test system: SW982; test: Cytotoxicity against human SW982 cells assessed as reduction in cell viability incubated for 72 hrs by MTT assay; format: functional
[2] = target: Histone-lysine N-methyltransferase, H3 lysine-79 specific (Homo sapiens) (UniProt Q8TEK3); test: Inhibition of […] (unknown origin) using SAM as substrate at 10 uM by time-resolved fluorescence assay relative to control
Chain of Histone-lysine N-methyltransferase, H3 lysine-79 specific (Homo sapiens) (Q8TEK3 whole entry, looked up): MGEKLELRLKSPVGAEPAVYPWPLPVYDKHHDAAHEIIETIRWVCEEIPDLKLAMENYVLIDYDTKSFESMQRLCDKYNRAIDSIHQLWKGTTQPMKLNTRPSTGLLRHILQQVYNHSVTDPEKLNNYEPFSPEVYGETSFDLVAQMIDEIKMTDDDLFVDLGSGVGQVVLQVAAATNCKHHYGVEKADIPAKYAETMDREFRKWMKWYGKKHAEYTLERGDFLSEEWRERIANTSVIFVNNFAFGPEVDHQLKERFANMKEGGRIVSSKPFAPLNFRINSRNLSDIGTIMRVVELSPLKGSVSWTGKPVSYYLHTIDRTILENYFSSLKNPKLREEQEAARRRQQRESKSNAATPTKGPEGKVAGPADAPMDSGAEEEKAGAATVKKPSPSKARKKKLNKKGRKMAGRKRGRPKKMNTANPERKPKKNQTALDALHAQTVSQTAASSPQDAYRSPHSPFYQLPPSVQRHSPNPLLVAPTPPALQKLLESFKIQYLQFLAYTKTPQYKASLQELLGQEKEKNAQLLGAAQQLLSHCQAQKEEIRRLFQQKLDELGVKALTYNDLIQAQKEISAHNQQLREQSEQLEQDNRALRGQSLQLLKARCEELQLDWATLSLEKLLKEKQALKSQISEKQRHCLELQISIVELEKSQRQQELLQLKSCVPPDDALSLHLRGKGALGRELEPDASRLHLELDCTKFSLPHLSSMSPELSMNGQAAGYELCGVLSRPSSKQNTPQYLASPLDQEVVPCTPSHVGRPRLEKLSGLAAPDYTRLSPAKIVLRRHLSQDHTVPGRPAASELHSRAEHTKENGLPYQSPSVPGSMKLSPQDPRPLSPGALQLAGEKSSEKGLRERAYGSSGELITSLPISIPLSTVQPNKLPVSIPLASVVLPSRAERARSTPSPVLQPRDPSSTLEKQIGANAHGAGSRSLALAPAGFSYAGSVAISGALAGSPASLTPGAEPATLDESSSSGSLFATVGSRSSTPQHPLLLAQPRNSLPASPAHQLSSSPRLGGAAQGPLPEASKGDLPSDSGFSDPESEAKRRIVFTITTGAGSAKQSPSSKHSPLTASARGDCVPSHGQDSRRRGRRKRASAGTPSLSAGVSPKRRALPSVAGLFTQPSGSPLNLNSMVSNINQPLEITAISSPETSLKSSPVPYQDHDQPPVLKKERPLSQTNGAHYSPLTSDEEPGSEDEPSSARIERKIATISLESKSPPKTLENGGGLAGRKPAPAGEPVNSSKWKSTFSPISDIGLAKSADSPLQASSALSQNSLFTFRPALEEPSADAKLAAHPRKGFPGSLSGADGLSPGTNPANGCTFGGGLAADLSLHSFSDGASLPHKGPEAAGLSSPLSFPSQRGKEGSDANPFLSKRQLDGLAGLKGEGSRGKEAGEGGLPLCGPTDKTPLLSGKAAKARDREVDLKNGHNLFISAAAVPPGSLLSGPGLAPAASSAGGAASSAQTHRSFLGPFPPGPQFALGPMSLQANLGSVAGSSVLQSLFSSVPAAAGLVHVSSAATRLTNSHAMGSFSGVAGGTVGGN

[3] = target: Histone-lysine N-methyltransferase SETD2 (Homo sapiens) (UniProt Q9BYW2); test: Inhibition of SETD2 (unknown origin) using SAM as substrate at 10 uM by time-resolved fluorescence assay relative to control
Chain of Histone-lysine N-methyltransferase SETD2 (Homo sapiens) (Q9BYW2 whole entry): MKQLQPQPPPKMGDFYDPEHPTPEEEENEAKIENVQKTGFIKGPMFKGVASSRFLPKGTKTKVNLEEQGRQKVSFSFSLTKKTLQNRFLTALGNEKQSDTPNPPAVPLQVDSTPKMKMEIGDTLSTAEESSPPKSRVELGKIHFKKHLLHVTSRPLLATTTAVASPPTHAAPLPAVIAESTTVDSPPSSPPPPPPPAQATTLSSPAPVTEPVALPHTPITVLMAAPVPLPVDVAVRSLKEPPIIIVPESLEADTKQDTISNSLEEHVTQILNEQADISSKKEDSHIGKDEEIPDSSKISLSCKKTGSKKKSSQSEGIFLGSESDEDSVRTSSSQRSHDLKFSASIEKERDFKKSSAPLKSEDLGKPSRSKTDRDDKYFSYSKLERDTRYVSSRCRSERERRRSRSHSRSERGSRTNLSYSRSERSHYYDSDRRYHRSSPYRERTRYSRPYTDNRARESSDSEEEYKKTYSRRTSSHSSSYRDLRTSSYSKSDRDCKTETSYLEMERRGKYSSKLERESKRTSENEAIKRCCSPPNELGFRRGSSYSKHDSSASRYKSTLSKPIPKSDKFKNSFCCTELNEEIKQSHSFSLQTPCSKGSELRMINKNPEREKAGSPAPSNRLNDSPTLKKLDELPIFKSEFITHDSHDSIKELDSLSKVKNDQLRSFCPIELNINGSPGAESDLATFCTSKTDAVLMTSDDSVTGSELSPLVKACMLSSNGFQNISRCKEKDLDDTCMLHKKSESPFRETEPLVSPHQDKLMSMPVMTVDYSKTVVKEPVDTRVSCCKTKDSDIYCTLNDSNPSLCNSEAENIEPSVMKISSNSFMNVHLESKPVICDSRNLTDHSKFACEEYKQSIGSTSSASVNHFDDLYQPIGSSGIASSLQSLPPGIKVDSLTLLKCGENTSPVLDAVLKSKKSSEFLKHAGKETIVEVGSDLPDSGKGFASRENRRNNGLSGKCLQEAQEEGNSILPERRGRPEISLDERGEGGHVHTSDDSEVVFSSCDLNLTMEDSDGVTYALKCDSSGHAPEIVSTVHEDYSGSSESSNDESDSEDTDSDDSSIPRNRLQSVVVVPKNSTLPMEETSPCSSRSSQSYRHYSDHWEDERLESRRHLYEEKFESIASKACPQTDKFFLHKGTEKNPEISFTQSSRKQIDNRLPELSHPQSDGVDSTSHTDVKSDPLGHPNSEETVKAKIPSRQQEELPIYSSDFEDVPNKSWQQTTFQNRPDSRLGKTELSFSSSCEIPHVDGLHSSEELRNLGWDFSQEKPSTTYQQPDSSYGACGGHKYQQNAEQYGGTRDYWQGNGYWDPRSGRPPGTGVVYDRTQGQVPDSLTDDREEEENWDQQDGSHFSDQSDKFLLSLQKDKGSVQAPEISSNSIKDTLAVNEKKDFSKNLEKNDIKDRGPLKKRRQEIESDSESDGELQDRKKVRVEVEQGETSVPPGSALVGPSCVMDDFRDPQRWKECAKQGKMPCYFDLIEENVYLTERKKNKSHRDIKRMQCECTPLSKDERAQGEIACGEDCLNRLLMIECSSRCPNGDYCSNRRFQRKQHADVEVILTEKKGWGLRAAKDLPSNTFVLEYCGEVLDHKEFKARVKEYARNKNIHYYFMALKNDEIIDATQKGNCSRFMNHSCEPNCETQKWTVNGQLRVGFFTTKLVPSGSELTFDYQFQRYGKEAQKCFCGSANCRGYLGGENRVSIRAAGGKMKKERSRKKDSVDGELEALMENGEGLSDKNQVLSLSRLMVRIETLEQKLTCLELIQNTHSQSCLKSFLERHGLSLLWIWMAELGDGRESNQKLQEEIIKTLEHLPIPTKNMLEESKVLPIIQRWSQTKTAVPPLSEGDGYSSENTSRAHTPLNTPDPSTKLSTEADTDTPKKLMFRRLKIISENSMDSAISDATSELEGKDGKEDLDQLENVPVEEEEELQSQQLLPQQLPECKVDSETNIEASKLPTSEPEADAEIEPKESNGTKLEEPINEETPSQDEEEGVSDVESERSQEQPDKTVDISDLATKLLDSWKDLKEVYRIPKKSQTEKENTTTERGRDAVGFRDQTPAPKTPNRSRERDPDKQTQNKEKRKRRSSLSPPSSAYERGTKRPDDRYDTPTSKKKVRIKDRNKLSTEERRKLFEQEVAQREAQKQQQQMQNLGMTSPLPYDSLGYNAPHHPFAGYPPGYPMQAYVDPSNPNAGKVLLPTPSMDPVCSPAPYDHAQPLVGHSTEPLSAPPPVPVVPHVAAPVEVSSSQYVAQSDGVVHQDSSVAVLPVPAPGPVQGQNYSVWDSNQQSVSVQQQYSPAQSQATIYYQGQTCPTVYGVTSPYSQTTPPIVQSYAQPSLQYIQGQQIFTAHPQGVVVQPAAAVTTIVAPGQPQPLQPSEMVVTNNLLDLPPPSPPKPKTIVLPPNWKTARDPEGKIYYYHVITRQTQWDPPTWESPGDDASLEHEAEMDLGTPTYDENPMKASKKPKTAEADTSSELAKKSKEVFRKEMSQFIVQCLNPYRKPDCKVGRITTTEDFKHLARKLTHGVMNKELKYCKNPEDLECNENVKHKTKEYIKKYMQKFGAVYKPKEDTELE

[4] = Tmax in Sprague-Dawley rat at 30 mg/kg, po administered for 24 hrs by HPLC analysis; format: ADME, organism-based; conditions: in vivo
[5] = Clearance in Sprague-Dawley rat at 10 mg/kg, iv administered for 12 hrs by HPLC analysis; format: ADME, organism-based; conditions: in vivo
[6] = Oral bioavailability in Sprague-Dawley rat at 30 mg/kg administered for 24 hrs by HPLC analysis; format: ADME, organism-based; conditions: in vivo
[7] = Cytotoxicity against human L02 cells assessed as reduction in cell viability incubated for 72 hrs by MTT assay; format: toxicity, cell-based
[8] = target: T1, Histone-lysine N-methyltransferase EHMT2 (Homo sapiens) (UniProt Q96KQ7); test: Binding affinity to recombinant EHMT2 G9a in human RD cells assessed as decrease in […] incubated for 1 hr by DARTS analysis; format: cell-based; conditions: dose 5-20 µM
T1 sequence (whole entry): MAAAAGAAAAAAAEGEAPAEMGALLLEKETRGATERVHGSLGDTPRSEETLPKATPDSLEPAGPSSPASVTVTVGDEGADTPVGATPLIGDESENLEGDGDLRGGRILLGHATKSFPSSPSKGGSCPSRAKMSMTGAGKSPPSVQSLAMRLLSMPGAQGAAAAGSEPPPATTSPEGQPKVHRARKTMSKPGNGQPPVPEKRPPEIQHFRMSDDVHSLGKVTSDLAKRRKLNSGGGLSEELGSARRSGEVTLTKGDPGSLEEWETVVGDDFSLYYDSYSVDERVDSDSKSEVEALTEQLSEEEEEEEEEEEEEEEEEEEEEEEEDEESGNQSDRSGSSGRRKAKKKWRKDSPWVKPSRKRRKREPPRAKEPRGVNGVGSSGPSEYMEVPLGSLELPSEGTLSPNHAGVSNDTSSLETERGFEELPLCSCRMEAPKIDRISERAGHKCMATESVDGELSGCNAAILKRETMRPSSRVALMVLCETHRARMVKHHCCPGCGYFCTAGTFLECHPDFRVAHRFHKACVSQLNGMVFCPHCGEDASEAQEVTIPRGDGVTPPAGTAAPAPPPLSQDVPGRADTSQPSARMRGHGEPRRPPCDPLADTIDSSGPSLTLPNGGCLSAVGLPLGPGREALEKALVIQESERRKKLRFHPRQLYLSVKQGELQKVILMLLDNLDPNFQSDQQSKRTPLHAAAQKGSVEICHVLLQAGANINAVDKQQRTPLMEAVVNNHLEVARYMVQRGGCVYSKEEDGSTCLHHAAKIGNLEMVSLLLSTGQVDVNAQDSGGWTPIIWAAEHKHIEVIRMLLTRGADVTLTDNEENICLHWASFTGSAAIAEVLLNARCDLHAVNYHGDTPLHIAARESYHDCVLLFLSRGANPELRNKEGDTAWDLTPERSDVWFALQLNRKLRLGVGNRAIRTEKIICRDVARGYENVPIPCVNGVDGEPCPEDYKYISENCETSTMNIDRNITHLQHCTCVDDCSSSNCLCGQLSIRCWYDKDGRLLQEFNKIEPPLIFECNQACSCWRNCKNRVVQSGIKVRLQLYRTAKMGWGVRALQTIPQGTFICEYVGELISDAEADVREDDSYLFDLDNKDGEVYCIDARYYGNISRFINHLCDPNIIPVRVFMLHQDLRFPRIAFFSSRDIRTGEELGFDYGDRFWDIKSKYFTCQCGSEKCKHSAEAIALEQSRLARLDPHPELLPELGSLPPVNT

[9] = target: T1, Histone-lysine N-methyltransferase EHMT2 (Homo sapiens); test: Binding affinity to recombinant EHMT2 G9a in human RD cells assessed as increase in protein thermal stability at 5 uM incubated for 4 hrs by CETSA based Western blot analysis; format: cell-based
[10] = target: Histone-lysine N-methyltransferase, H3 lysine-79 specific (Homo sapiens) (UniProt Q8TEK3); test: Binding affinity to DOT1L in human RD cells assessed as increase in protein thermal stability at 5 uM incubated for 4 hrs by CETSA based Western blot analysis; format: cell-based
[11] = test system: RD; test: Downregulation of H3K9me2 expression in human RD cells at 5 uM incubated for 6 days by Western blotting analysis; format: functional, cell-based; conditions: time 6.0 day
[12] = test system: SW982; test: Antiproliferative activity against human SW982 cells assessed as reduction in clone formation rate at 5 uM for 1 to 2 weeks with fresh medium replacement for every 2 to 3 days by crystal violet staining based microscopic analysis; format: functional, cell-based; conditions: time 1-2 weeks
[13] = Plasma protein binding in Kunming mouse by equilibrium dialysis method; format: ADME, cell-free; conditions: read-out: PPB (converted)
[14] = test system: Mus musculus; test: Downregulation of H3K27me3 expression in tumor tissue of BALB/c nude mouse xenografted with human RD cells at 20 mg/kg, ip administered for 5 consecutive days followed by 2 rest days for 3 weeks by Western blotting analysis; format: functional, organism-based
[15] = Toxicity in BALB/c nude mouse xenografted with human RD cells assessed as effect on liver viscera index at 10 to 20 mg/kg, ip administered for 5 consecutive days followed by 2 rest days for 3 weeks; format: organism-based; conditions: in vivo, 504 h, dose 10-20 mg/kg
[16] = Toxicity in BALB/c nude mouse xenografted with human RD cells assessed as effect on lung viscera index at 10 to 20 mg/kg, ip administered for 5 consecutive days followed by 2 rest days for 3 weeks; format: organism-based; conditions: in vivo, 504 h, dose 10-20 mg/kg
[17] = Toxicity in BALB/c nude mouse xenografted with human RD cells assessed as effect on kidney viscera index at 10 to 20 mg/kg, ip administered for 5 consecutive days followed by 2 rest days for 3 weeks; format: organism-based; conditions: in vivo, 504 h, dose 10-20 mg/kg
[18] = test system: RD; test: Antiproliferative activity against EZH2 and G9a knockdown human RD cells assessed as reduction in clone formation rate at 5 uM for 1 to 2 weeks with fresh medium replacement for every 2 to 3 days by crystal violet staining based microscopic analysis; format: functional, cell-based; conditions: time 1-2 weeks
[19] = test system: RD; test: Antitumor activity against human RD-EV cells xenografted in BALB/c nude mouse assessed as tumor growth inhibition at 20 mg/kg, ip administered for 15 days; format: functional; conditions: 360 h, time 15 day, read-out: TGI
[20] = test system: RD; test: Downregulation of H3K4me1 expression in human RD cells at 5 uM incubated for 6 days by immunoblotting analysis; format: functional, cell-based; conditions: time 6.0 day
[21] = test system: RD; test: Downregulation of H3K4me2 expression in human RD cells at 5 uM incubated for 6 days by immunoblotting analysis; format: functional, cell-based; conditions: time 6.0 day
[22] = test system: RD; test: Downregulation of H3K79me1 expression in human RD cells at 5 uM incubated for 6 days by immunoblotting analysis; format: functional, cell-based; conditions: time 6.0 day
[23] = test system: RD; test: Downregulation of H3K79me2 expression in human RD cells at 5 uM incubated for 6 days by immunoblotting analysis; format: functional, cell-based; conditions: time 6.0 day
[24] = test system: RD; test: Downregulation of H3K79me3 expression in human RD cells at 5 uM incubated for 6 days by immunoblotting analysis; format: functional, cell-based; conditions: time 6.0 day

Structure (SMILES): COc1cc2c(NCc3c(C)cc(C)[nH]c3=O)nc(N3CCC(F)(F)CC3)nc2cc1OCCCN1CCCC1
- CC50 [1]: 19.9 µM
- inhibition [2]: -5.87%
- inhibition [3]: -5.18%
- Tmax [4]: 41.4 min
- CL [5]: 15.14 mL/min/kg
- bioavailability [6]: 92%
- CC50 at 72 h [7]: > 100 µM
- Activity [8]: Dose-Dependent Effect
- Activity [9]: Active
- Activity [10]: inactive
- Activity [11]: Active
- Activity [12]: Active
- fraction unbound [13]: 0.186
- Activity [14]: Active
- Activity [15]: Non-Toxic
- Activity [16]: Non-Toxic
- Activity [17]: Non-Toxic
- Activity [18]: inactive
- inhibition in vivo at 20 mg/kg [19]: 55.4%
- Activity [20]: inactive
- Activity [21]: inactive
- Activity [22]: inactive
- Activity [23]: inactive
- Activity [24]: inactive
